According to publication PMC5847527, “Identification of a novel 2-oxindole fluorinated derivative as in vivo antitumor agent for prostate cancer acting via AMPK activation” (Scientific Reports, 2018):
Values joined by “and” are separate entries in the source; they are usually repeats but may differ in a detail not shown here. Equal entries are not always repeated.

Key:
[1] = molecular target: T1, AMPK (Homo sapiens, UniProt Q13131); test: AMPK and ACC phosphorylation by Western blot in PC-3 cells; format: cell-based; details: 25 µM, 1 hour; for Thr172 phosphorylation of AMPK (pAMPK/AMPK): compared to controls
T1 construct: endogenous in cells; host or cells: PC-3, DU145, LNCaP
T1 sequence (Q13131 whole entry): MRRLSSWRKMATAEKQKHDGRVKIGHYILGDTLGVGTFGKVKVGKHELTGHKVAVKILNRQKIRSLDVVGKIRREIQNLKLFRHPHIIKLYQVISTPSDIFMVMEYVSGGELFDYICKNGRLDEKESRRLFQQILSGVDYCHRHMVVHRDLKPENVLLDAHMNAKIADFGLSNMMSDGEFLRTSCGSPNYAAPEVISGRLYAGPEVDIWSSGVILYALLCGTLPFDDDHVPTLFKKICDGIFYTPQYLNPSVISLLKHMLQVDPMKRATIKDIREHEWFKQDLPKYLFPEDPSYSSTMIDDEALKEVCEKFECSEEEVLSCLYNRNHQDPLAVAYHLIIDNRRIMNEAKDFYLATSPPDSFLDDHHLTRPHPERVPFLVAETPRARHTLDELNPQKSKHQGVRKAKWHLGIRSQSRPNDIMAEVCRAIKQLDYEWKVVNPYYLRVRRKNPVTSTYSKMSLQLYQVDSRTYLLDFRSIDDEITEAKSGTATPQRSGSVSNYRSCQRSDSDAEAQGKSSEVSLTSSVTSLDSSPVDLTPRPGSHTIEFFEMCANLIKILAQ
T1 sequence (Q9Y478 2-270 partner limits assumed): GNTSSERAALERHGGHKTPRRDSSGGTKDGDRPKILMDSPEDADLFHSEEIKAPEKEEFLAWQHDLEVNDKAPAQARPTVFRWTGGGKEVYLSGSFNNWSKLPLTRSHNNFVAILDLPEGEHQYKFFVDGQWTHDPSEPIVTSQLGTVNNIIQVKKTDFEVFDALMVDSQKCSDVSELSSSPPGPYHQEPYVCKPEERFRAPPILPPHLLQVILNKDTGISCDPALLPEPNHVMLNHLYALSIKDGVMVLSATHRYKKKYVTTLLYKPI
T1 sequence (P54619 whole entry partner): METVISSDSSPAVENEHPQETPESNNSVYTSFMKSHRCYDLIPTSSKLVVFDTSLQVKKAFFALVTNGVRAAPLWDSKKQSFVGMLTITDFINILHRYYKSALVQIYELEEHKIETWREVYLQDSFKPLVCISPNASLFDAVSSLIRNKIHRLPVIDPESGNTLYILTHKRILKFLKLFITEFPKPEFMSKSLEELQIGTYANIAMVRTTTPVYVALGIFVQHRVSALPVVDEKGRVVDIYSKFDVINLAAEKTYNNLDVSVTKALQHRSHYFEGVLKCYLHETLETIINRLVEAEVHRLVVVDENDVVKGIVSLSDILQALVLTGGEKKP
Text: To investigate the effect of the compounds on AMPK activity at cellular level, compounds 8a-c and 9a-b were selected to perform AMPK phosphorylation assays in human prostate cancer cell lines. We use the PC-3 cell line as it is androgen-resistant and represents the advanced and aggressive stage of prostate cancer. […] AMPK inhibits lipogenic pathway through phosphorylation of its well-known substrate acetyl-CoA carboxylase (ACC). To confirm the modulation of AMPK activity in prostate cells by the compounds, we determined levels of phosphorylated ACC in 2-oxindole fluorinated derivatives-treated cells. […] It is worthy to note that the highest ACC phosphorylation was obtained with compound 8c denoting a powerful activity of this compound in PC-3 cells.
(§1) Figure 2 Effect of 2-oxindole fluorinated derivatives on AMPK activity in prostate cancer cells. (A) PC-3, DU145 and LNCaP cells were treated with 25 µM of the selected 2-oxindole fluorinated derivatives for 1 hour. Levels of the phosphorylated AMPK (pAMPK), phosphorylated ACC (pACC) and their total forms were determined by Western blot. Upper panel, a representative Western blot of three different experiments. β-tubulin (β-Tub) serves as a loading control. […] Lower panels, densitometric analyses of bands represented as the mean of the ratio pAMPK/AMPK or pACC/ACC ± SD of three different experiments. *p < 0.05 compared with the controls by one-way ANOVA followed by Fisher’s LSD test; ^#p < 0.05 compared with 2-oxindole fluorinated derivates or with the AMPK activators AMP or A769662 by one-way ANOVA followed by Tukey test.
(§2) Human prostate cancer epithelial PC-3, DU145 and LNCaP and human prostate normal RWPE-1 cells were purchased from American Type Culture Collection (ATCC CRL-1435 CRL-1740 and CRL 11609 respectively) (Rockville, MD, USA). The human prostate normal PNT2 cell line was purchased to ECACC (European Collection of Cell cultures, Salisbury, SP4 0JG, UK). Cells were routinely grown in RPMI 1640 medium supplemented with 100 IU/ml penicillin G sodium, 100 µg/ml streptomycin sulfate, 0.25 µg/ml amphotericin B (Invitrogen, Paisley, UK) and 10% fetal calf serum. Cells were used at passages between 10–20. For treatment experiments, cells were plated and grown over night, the medium was then replaced with serum-free RPMI 1640 for 24 hours and then incubated with different doses of the compounds for the indicated times.
Cells were lysed in Lysis buffer (50 mM Tris pH 7.4, 0.8 M NaCl, 5 mM MgCl2, 0.1% Triton X-100) containing Protease Inhibitor and Phosphatase inhibitor Cocktails (Roche, Basel, Switzerland). Protein concentrations were measured by BioRad™ protein assay kit (Richmond, CA, USA). Equal amount of protein (20 μg) from each sample was separated on 8% SDS–PAGE gels and transferred to PVDF membranes (BioRad). The membranes were blocked with blocking buffer (1× TBS, 0.1% Tween 20 with 5% w/v fat-free dry milk), washed and incubated with primary antibodies at 4 °C for 12 h. The membranes were subsequently washed with TBS-T (1× TBS and 0.1% Tween 20) and incubated with horseradish peroxidase-conjugated anti-mouse or anti-rabbit IgG antibodies (Sigma, St Louis, MO, USA) at room temperature for 1 h. The immune complex was visualized with an ECL system (Cell Signaling Technology). Films were analyzed by densitometry. The anti-pAMPKα1-thr172, pACC-ser79, pP53, P21, pRaptor and the antibodies against the corresponding total forms were obtained from Cell Signaling Technology (Danvers, MA, USA). The anti-caspase 3 and anti-procaspase 3 were from Santa Cruz Biotechnology (Dallas, Texas, USA). The anti-HIF1A was from Novus Biologicals LLC (Littleton, CO, USA). The anti-Cyclin D1 antibody was obtained from ThermoFisher (Alcobendas, Madrid, Spain). All the other chemicals were obtained from Sigma (St. Louis, MO, USA).

[2] = tested on: PNT2 cells; test: Cell viability by MTT assay, PNT2 normal prostate cells; format: cell-based, human; details: PNT2, 50 μM
Description: (§3) Figure 3 Comparison of the effect of 2-oxindole fluorinated derivatives on the proliferation of human prostate cancer cells. (A) Normal (PTN2 and RWPE-1) and cancer (PC3,DU145 and LNCaP) prostate cells were treated with different doses of the compounds for 24 hours and cell viability was monitored by MTT assay. […] (C) PC-3, DU145 and LNCaP cells were treated with 25 µM of compound 8c for different times. Values were normalized with the control and represent the mean ± SD of at least three independent experiments. *p < 0.05 and **p < 0.01 compared to control by the Student’s - test.
as §2
(§4) Cell viability was determined by 3-(4,5-dimethylthiazol-2-yl)-2,5-diphenyltetrazolium bromide (MTT) (Sigma-Aldrich) method. […] The optical density in each well was evaluated by measurement of absorbance at 490 and 650 nm using a microplate reader (ELX 800 Bio-Tek Intruments, INC). IC50 values were calculated using GraphPad Prism vs 6.0 (GraphPad Software, Inc, La Jolla, CA, USA). Cell viability was also determined by counting viable and dead cells by Trypan blue staining. Trypan blue positive and negative cells were counted using a Countess^TM automated cell counter (Invitrogen, Carlsbad, CA, USA). Results were expressed in relation to total number of cells counted.

[3] = tested on: RWPE-1 cells; test: Cell viability by MTT assay, RWPE-1 normal prostate cells; format: cell-based, human; details: RWPE-1, 50 μM
Description: as §3, §2, §4

[4] = tested on: DU145 cells; test: Cell viability by MTT assay, DU145; format: cell-based, human; details: DU145, 50 μM
Description: as §3, §2
(§5) Cell viability was determined by 3-(4,5-dimethylthiazol-2-yl)-2,5-diphenyltetrazolium bromide (MTT) (Sigma-Aldrich) method. In brief, a total of 5000 cells/well were seeded into 12-well plate in a final volume of 1 mL. After treatments, 20 µl MTT solution (5 mg/ml in PBS) was added to the medium and cells were incubated at 37 °C for 4 h. Then, the supernatant was discarded and isopropanol was added to dissolve the formazan crystals. Treatments were carried out in triplicate. The optical density in each well was evaluated by measurement of absorbance at 490 and 650 nm using a microplate reader (ELX 800 Bio-Tek Intruments, INC). IC50 values were calculated using GraphPad Prism vs 6.0 (GraphPad Software, Inc, La Jolla, CA, USA). Cell viability was also determined by counting viable and dead cells by Trypan blue staining. Trypan blue positive and negative cells were counted using a Countess^TM automated cell counter (Invitrogen, Carlsbad, CA, USA). Results were expressed in relation to total number of cells counted.

[5] = tested on: LNCaP cells; test: Cell viability by MTT assay, LNCaP; format: cell-based, human; details: 50 μM
Description: as §3, §2, §4

[6] = tested on: PC-3 cells; test: Cell viability by MTT assay, PC-3; format: cell-based, human; details: PC-3, 50 μM
Description: as §3, §2, §5

[7] = tested on: PTN2, RWPE-1, PC3, DU145 and LNCaP prostate cells; test: Cell viability by MTT assay, statements for the five cell lines together; format: cell-based, human; details: 1–100 µM, dose-dependent, 24 hours
[8] = tested on: AMPK; test: AMPK and ACC phosphorylation by Western blot in LNCaP cells; format: cell-based, human; details: 25 µM, 1 hour
Description: as §1
Similar results were obtained although AMPK stimulation by compound 8c was not so strong (Fig. 2A). […]
Cells were lysed in Lysis buffer (50 mM Tris pH 7.4, 0.8 M NaCl, 5 mM MgCl2, 0.1% Triton X-100) containing Protease Inhibitor and Phosphatase inhibitor Cocktails (Roche, Basel, Switzerland). Protein concentrations were measured by BioRad™ protein assay kit (Richmond, CA, USA). […] Films were analyzed by densitometry. […]

[9] = tested on: AMPK; test: Characterization of AMPK activation by Western blot in PC-3 and LNCaP cells (Dorsomorphin, siRNA); format: cell-based, human; details: PC-3 and LNCaP cells, 5 μM Dorsomorphin + 25 µM 8c, 1 h and 24 h
Description: To further confirm the compound 8c-induced activation of AMPK, PC-3 and LNCaP cells were incubated with the compound for 1 h and 24 hours in the presence of the AMPK inhibitor Dorsomorphin. […] Accordingly, ACC phosphorylation was increased at 1 h and 24 h and prevented by Dorsomorphin in both cell lines. AMPK inhibits mTORC1 through phosphorylation of Raptor on two well-conserved serine residues (ser722 and ser792) inducing cell-cycle arrest in response to an energy stress. To further support the 8c-induced AMPK activation, we determined Raptor phosphorylation on Ser792 in prostate cells.
Figure 5 AMPK activation by compound 8c in prostate cancer cells. (A) PC-3 and LNCaP cells were treated with vehicle, 25 µM compound 8c, 25 µM compound 8c + 5 μM Dorsomorphin (8c + D) or 5 μM Dorsomorphin (D), for 1 hour or 24 hours and levels of the phosphorylated AMPK (pAMPK), phosphorylated ACC (pACC), phosphorylated Raptor (pRaptor) forms and HIF1α were determined by Western blot. Upper panel, representative Western blot of three different experiments. β-tubulin (β-Tub) serves as a loading control. Lower panel, densitometric analyses of bands represented as the mean of the ratio pAMPK/AMPK or pACC/ACC. (B) Cell viability monitored by MTT assay in PC-3 and LNCaP cells treated with vehicle, 25 µM and 50 μM compound 8c alone or in the presence of 5 μM Dorsomorphin or transfected with control siRNA (siC) or α1AMPK-selective siRNA (siAMPK). (C) LNCaP cells were treated with vehicle, 25 µM compound 8c, 25 µM compound 8c + 5 μM Dorsomorphin (8c + D) or 5 μM Dorsomorphin (D), for 24 hours and levels of Androgen Receptor (AR), Prostate specific antigen (PSA) and Prostate specific membrane antigen (PSMA) were determined by Western blot.Values were normalized with the control and represent the mean ± SD of at least three independent experiments. *p < 0.05 and **p < 0.01 compared to control and ^#p < 0.05 and ^##p < 0.01 compared with 8c-treated group by the Student’s t-test.
AMPK is a heterotrimeric protein composed by catalytic (α) and regulatory (β and γ) subunits. In mammals, different isoforms of α, β and γ subunits can associate to produce up to 12 AMPK different combinations. […]
Figure 6 Phosphorylation of AMPK and ACC in prostate cells transfected with selective AMPKα1 or AMPKα2 siRNA. […] Levels of the phosphorylated AMPK (pAMPK), phosphorylated ACC (pACC) and their total forms were determined by Western blot. […]
Cells were lysed in Lysis buffer (50 mM Tris pH 7.4, 0.8 M NaCl, 5 mM MgCl2, 0.1% Triton X-100) containing Protease Inhibitor and Phosphatase inhibitor Cocktails (Roche, Basel, Switzerland). Protein concentrations were measured by BioRad™ protein assay kit (Richmond, CA, USA). […]

Compound | ACC phosphorylation (pACC/ACC) [1] | Thr172 phosphorylation of AMPK (pAMPK/AMPK) [1] | inhibitory efficacy on cells viability at 50 μM [4] | inhibitory efficacy on cells viability at 50 μM [6] | other results
O=C1Nc2ccc(Cl)cc2C1(F)Cc1ccc(N2CCCC2)cc1 (stereo not shown) [Compound 8b, 5-chloro-3-fluoro-3-(4-(pyrrolidin-1-yl)benzyl)indolin-2-one] | inhibited ACC phosphorylation | slightly, although significantly, inhibited AMPK phosphorylation | 14% | 3% | inhibitory efficacy on cells viability at 50 μM [2]: 0%; inhibitory efficacy on cells viability at 50 μM [3]: 17%; inhibitory efficacy on cells viability at 50 μM [5]: 11%
O=C1N(Cc2ccccc2)c2ccc(Cl)cc2C1(F)Cc1ccc(N2CCCC2)cc1 (stereo not shown) [Compound 9b, 1-benzyl-5-chloro-3-fluoro-3-(4-(pyrrolidin-1-yl)benzyl)indolin-2-one] | augmented pACC | weak AMPK activation | 14% and 17% | 27% and 23% | AMPK phosphorylation (pAMPK/AMPK) [8]: slightly increases AMPK phosphorylation in PC-3 cells but not in LNCaP cells
c1cc(-c2cnn3cc(-c4ccc(OCCN5CCCCC5)cc4)cnc23)ccn1 [Dorsomorphin, reference compound] | – | – | – | – | effect on AMPK activation by compound 8c [9]: blocked AMPK activation by compound 8c both at 1 h and 24 h

Now from value to molecule, other results behind:

ACC phosphorylation (pACC/ACC) [1] | Compound | Thr172 phosphorylation of AMPK (pAMPK/AMPK) [1] | inhibitory efficacy on cells viability at 50 μM [4] | inhibitory efficacy on cells viability at 50 μM [6] | other results
inhibited ACC phosphorylation | O=C1Nc2ccccc2C1(F)Cc1ccc[nH]1 (stereo not shown) [Compound 8a, 3-((1H-pyrrol-2-yl)methyl)-3-fluoroindolin-2-one] | slightly, although significantly, inhibited AMPK phosphorylation | – | – | melting point: 143 to 146 °C
inhibited ACC phosphorylation | O=C1N(Cc2ccccc2)c2ccccc2C1(F)Cc1ccc[nH]1 (stereo not shown) [Compound 9a, 3-((1H-pyrrol-2-yl)methyl)-1-benzyl-3-fluoroindolin-2-one] | slightly, although significantly, inhibited AMPK phosphorylation | – | – | inhibition of cell proliferation [7]: effectively inhibited cell proliferation
